System: rat
Assay: Established adjuvant arthritis (adjuvant-induced polyarthritis in the rat)
Format: in vivo, female Lewis rats
Settings: 50 mg/kg b.i.d.
Experimental: The procedures for this test have been described in detail by R. Vinegar, J. F. Truax, J. L. Selph. A. Lea, and P. R. Johnston (J. Immunopharmacol. 1:497-520, 1979). The rats used in these studies were female Lewis rats whose starting weight was 190±10 g. Arthritic rats were assigned to treatment groups consisting of six animals each. Fed rats were dosed by oral gavage starting on day 21 post adjuvant injection; therapy was continued until day 28. The incidence and severity of arthritic lesions were assessed using a modification of the scoring procedure described by H. L. F. Currey and M. Ziff (J. Exp. Med. 121:185-203, 1968). Briefly, the bilateral joints were scored for erythema, edema, and ankylosis as outlined below:
The maximal possible score per rat was 40. Experimental results were analyzed by one-way ANOVA, followed by post hoc comparisons of treatment effects versus untreated arthritic control using the Newman-Keuls test. The percent inhibition of each drug-treated group was calculated from the mean relative to the arthritic control.

NC(=O)/C=C1\CCc2c(F)cc(F)cc21 [Example 5, (E)-2-(4,6 Difluoro-1-indanylidene)acetamide]
arthritic scores (oral gavage, days 22, 25, and 27, versus untreated arthritic control): significantly (p<0.01) lowered arthritic scores
Spleen weight (postmortem on day 27): significantly reduced (p<0.01)
plasma fibrinogen (postmortem on day 27): significantly reduced (p<0.01)
